This is an account of results in patent US4843079A, “Fused heteroalkylene quinolinamines” (Hoechst-Roussel Pharmaceuticals, Inc., priority 1988, dated 1989).

The structures appear in SMILES notation. Counter-ions that a name gives are not always drawn. Like-named read-outs stand apart in the source and are kept apart here.

Assay [1] has as its system scopolamine Induced Memory Deficit. The assay can be described thus: Dark Avoidance Assay (scopolamine-impaired memory). It counts as in vivo. Conditions: mice, retested 24 hours later. On the procedure:
This utility of the compounds of the present invention mentioned above can also be ascertained by determining the ability of these compounds to restore cholinergically deficient memory in the Dark Avoidance Assay. In this assay mice are tested for their ability to remember an unpleasant stimulus for a period of 24 hours. A mouse is placed in a chamber that contains a dark compartment; a strong incandescent light drives it to the dark compartment, where an electric shock is administered through metal plates on the floor. The animal is removed from the testing apparatus and tested again, 24 hours later, for the ability to remember the electric shock.
If scopolamine, an anticholinergic that is known to cause memory impairment, is administered before an animal's initial exposure to the test chamber, the animal re-enters the dark compartment shortly after being placed in the test chamber 24 hours later. This effect of scopolamine is blocked by an active test compound, resulting in a greater interval before re-entry in the dark compartment.
The results for an active compound are expressed as the percent of a group of animals in which the effect of scopolamine is blocked, as manifested by an increased interval between being placed in the test chamber and re-entering the dark compartment.

A further assay addresses acetylcholinesterase (Homo sapiens, UniProt P22303). The assay can be described thus: biochemical.
The mark [2] stands for this setting: photometric method of Ellman et al., read-out: IC50, Cholinesterase Inhibition.

acetylcholinesterase, sequence (P22303 32-614): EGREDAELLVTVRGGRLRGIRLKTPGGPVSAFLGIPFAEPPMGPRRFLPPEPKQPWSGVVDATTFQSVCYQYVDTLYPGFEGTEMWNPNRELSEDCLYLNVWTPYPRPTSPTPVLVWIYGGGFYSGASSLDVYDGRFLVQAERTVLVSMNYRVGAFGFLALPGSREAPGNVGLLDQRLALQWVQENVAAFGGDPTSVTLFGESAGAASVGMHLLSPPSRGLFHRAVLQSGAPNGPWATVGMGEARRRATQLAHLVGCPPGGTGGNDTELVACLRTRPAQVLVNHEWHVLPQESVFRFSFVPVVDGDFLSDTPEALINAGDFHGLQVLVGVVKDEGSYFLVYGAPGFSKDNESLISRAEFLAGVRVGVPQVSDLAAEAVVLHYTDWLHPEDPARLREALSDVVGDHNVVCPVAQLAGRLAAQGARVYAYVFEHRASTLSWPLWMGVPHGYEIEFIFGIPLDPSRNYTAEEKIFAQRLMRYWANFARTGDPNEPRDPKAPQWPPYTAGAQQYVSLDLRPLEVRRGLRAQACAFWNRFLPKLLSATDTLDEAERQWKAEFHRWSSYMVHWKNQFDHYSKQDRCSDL

As for `Nc1c2c(nc3ccccc13)CCSC2` [10-amino-3,4-dihydro-1H-thiopyrano[4,3-b]quinoline], the “% of animals with scopolamine Induced Memory Deficit Reversed” value (“% of animals” below) in assay [1] (dose 0.16 mg/kg body weight) turned out to be 27%. In addition, the IC50 on acetylcholinesterase (setting [2]) worked out at 970 nM.

Take `Nc1c2c(nc3cc(C(F)(F)F)ccc13)CCSC2` [10-amino-3,4-dihydro-7-trifluoromethyl-1H-thiopyrano[4,3-b]quinoline]: the 50% inhibitory concentration (IC50) on acetylcholinesterase is 640 nM. Consider `Nc1c2c(nc3ccccc13)CCOC2` [10-Amino-3,4-dihydro-1H-pyrano[4,3-b]quinoline fumarate], for which, at acetylcholinesterase (setting [2]), the IC50 was 200 nM. For the molecule `CNC(=O)Oc1ccc2c(c1)[C@]1(C)CCN(C)[C@@H]1N2C` [Physostigmine, reference compound], the “% of animals” value in assay [1] (dose 0.31 mg/kg body weight) was 20%. Regarding `Cc1ccc2c(N)c3c(nc2c1)CCSC3` [10-amino-3,4-dihydro-7-methyl-1H-thiopyrano[4,3-b]quinoline], the IC50 on acetylcholinesterase (setting [2]) came out at 190 nM. On acetylcholinesterase, `c1ccc(CNc2c3c(nc4ccccc24)CCSC3)cc1` [10-benzylamino-3,4-dihydro-1H-thiopyrano[4,3-b]quinoline hydrochloride] showed an IC50 of 3900 nM. `Nc1c2c(nc3cc(F)ccc13)CCSC2` [10-amino-3,4-dihydro-7-fluoro-1H-thiopyrano [4,3-b]quinoline]: the “% of animals” value in assay [1] (dose 0.31 mg/kg body weight) amounted to 67%. Further, the IC50 at acetylcholinesterase (setting [2]) turned out to be 150 nM.

`Nc1c2c(nc3ccccc13)CCS2` [9-amino-2,3-dihydrothieno[3,2-b]quinoline]: the IC50 on acetylcholinesterase (setting [2]) stood at 440 nM.

Take `Nc1c2c(nc3ccccc13)CSC2` [9-Amino-1,3-dihydrothieno[3,4-b]quinoline]: the “% of animals” value in assay [1] (dose 0.31 mg/kg body weight) is 14%. In addition, the IC50 on acetylcholinesterase (setting [2]) turned out to be 47 nM.
